According to ChEMBL document CHEMBL1144787, “Insect antifeedant sesquiterpene acetals from the liverwort Lepidolaena clavigera. 2. structures, artifacts, and activity” (J Nat Prod, 2008):

Key:
Tineola bisselliella [1] = assay: Survival of Tineola bisselliella larvae at 0.01% w/w relative to control; assay type: functional
[2] = Antifeedant activity in Anthrenocerus australis larvae assessed as loss in wool weight at 0.01% w/w relative to control; assay type: functional
Eurhopalus australis [3] = assay: Survival of Anthrenocerus australis larvae at 0.01% w/w relative to control; assay type: functional
Tineola bisselliella [4] = assay: Antifeedant activity in Tineola bisselliella larvae assessed as loss in wool weight at 0.01% w/w relative to control; assay type: functional
[5] = Antifeedant activity in Tineola bisselliella larvae assessed as loss in wool weight at 0.1% w/w relative to control; assay type: functional
Tineola bisselliella [6] = assay: Survival of Tineola bisselliella larvae at 0.1% w/w relative to control; assay type: functional
[7] = Cytotoxicity against monkey BSC cells assessed as zone of inhibition at 30 ug/disc; assay type: cell-based, Macaca mulatta; conditions: rhesus monkey
[8] = Cytotoxicity against monkey BSC cells assessed as zone of inhibition at 60 ug/disc; assay type: cell-based, Macaca mulatta; conditions: rhesus monkey
[9] = Antifeedant activity in Anthrenocerus australis larvae assessed as loss in wool weight at 0.1% w/w relative to control; assay type: functional
Eurhopalus australis [10] = assay: Survival of Anthrenocerus australis larvae at 0.05% w/w relative to control; assay type: functional
[11] = Antifeedant activity in Anthrenocerus australis larvae assessed as loss in wool weight at 0.025% w/w relative to control; assay type: functional
Eurhopalus australis [12] = assay: Survival of Anthrenocerus australis larvae at 0.025% w/w relative to control; assay type: functional
[13] = Antifeedant activity in Anthrenocerus australis larvae assessed as loss in wool weight at 0.05% w/w relative to control; assay type: functional
Eurhopalus australis [14] = assay: Survival of Anthrenocerus australis larvae at 0.1% w/w relative to control; assay type: functional

| Compound | survival at 0.01 % strength (Tineola bisselliella [1]) [%] | Activity [2] [%] | survival at 0.01 % strength (Eurhopalus australis [3]) [%] | Activity (Tineola bisselliella [4]) [%] | Activity [5] [%] | survival at 0.1 % strength (Tineola bisselliella [6]) [%] | inhibition zone (IZ) [7] [mm] | inhibition zone (IZ) [8] [mm] | Activity [9] [%] | survival at 0.05 % strength (Eurhopalus australis [10]) [%] | Activity [11] [%] | survival at 0.025 % strength (Eurhopalus australis [12]) [%] | Activity [13] [%] | survival at 0.1 % strength (Eurhopalus australis [14]) [%] |
| --- | --- | --- | --- | --- | --- | --- | --- | --- | --- | --- | --- | --- | --- | --- |
| CC1(C)C(C=C(Cl)Cl)C1C(=O)OCc1cccc(Oc2ccccc2)c1 (stereo not drawn) [PERMETHRIN] | 0 | -100 | 96 | -100 | – | – | – | – | – | – | – | – | – | – |
| CC(=O)OC(C(=O)C=C(C)C)[C@]12[C@@H](OC(C)=O)O[C@@H]3C=C(C)[C@H]1C[C@@H]32 (stereo partly drawn) [CLAVIGERIN A] | – | – | – | – | 2 | 95 | 1 | – | – | – | – | – | – | – |
| CO[C@H]1O[C@@H]2C=C(C)[C@H]3C[C@@H]2[C@@]13CC(=O)CC(C)C [METHOXY CLAVIGERIN C] | – | – | – | – | -12 | 86 | – | 1 | – | – | – | – | – | – |
| CC(=O)O[C@H]1O[C@@H]2C=C(C)[C@H]3C[C@@H]2[C@@]13CC(=O)C=C(C)C [CLAVIGERIN B] | – | – | – | – | -74 | 27 | 1 | – | -78 | 98 | -34 | 98 | -79 | 95 |
| CC(=O)O[C@H]1O[C@@H]2C=C(C)[C@H]3C[C@@H]2[C@@]13CC(=O)CC(C)C [CLAVIGERIN C] | – | – | – | – | -95 | 5 | > 4 | – | -86 | 97 | -50 | 98 | -62 | 96 |
